According to patent US20020107250A1, “Rapid-onset formulation of a selective cyclooxygenase-2 inhibitor” (priority 2000, published 2002):

Test: Solubility of celecoxib and valdecoxib in various solvent liquids
Assay type: physicochemical
Description: Aliquots of a solvent liquid were then added dropwise in approximately 100 mg increments to the solid sample. The resulting mixture was vortexed and/or sonicated between aliquot additions. […] Solubility values preceded by the<symbol denote that, at the particular concentration shown, the mixture was still cloudy, i.e., not all of the drug was fully in dissolved form.

| Solubility in a DGME/water mixture compared with a PEG-400/water mixture (same ratio of mixture ingredients) | Solubility (solvent liquid: Capmul MCM (caprylic/capric mono- and diglycerides)) | Solubility (solvent liquid: Labrasol/DGME/propylene glycol laurate 40:40:20 w/w) | Solubility (solvent liquid: Labrasol/DGME/propylene glycol laurate 45:45:10 w/w) | Solubility (solvent liquid: Miglyol 812 (caprylic/capric triglycerides)) | Solubility (solvent liquid: Tagat TO (polyoxyethylene glyceryl trioleate)) | Solubility (solvent liquid: Tagat TO/Capmul MCM 1:1 w/w) | Solubility (solvent liquid: polyethylene glycol 400) | Solubility (solvent liquid: propylene glycol) | SMILES | Advantage in solubility for DGME over propylene glycol (DGME versus propylene glycol) |
| --- | --- | --- | --- | --- | --- | --- | --- | --- | --- | --- |
| significantly higher | 19 to 21 mg/g | 288 to 297 mg/g | 313 to 325 mg/g | 6 to 12 mg/g | 24 to 40 mg/g | 34 to 52 mg/g |  |  | Cc1ccc(-c2cc(C(F)(F)F)nn2-c2ccc(S(N)(=O)=O)cc2)cc1 [celecoxib, 4-[5-(4-methylphenyl)-3-(trifluoromethyl)-1H-pyrazol-1-yl]benzenesulfonamide] |  |
|  |  |  |  |  |  |  | 50 to 85 mg/g | 10 to 20 mg/g | Cc1onc(-c2ccccc2)c1-c1ccc(S(N)(=O)=O)cc1 [valdecoxib, 4-[5-methyl-3-phenylisoxazol-4-yl]benzenesulfonamide] | approximately tenfold advantage in solubility |
